Source: patent US20060029743A1, “Wood preservatives and methods of wood preservation” (priority 2004, published 2006)
≈ marks a conversion by molar mass, not a printed value. Read-outs that look alike come from different tables or passages of the source.

Experiments:
Experiment in all cases: 6-well plate assay, minimal inhibitory concentration
Format in all cases: cell-based
[1] = tested on: Phanerochaete chrysosporium; settings: for MIC: Phanerodontia chrysosporium, 168 h, read-out: Effectiveness at Inhibiting Wood-Rotting Fungi, WR3 (minimal inhibitory concentration)
Experimental: (§1) The minimal inhibitory concentration of fungicides against eight fungi was determined in 6-well microtiter plates. Minimal inhibitory concentration is defined as the lowest concentration at which no fungus growth is evident after seven days. A group of eight fungi were used in a screen to identify potential active ingredients to preserve wood. The eight fungi, their classification, and the growth media used to culture them are listed below:
(§2) Growth media were purchased from Difco (from Beckton Dickinson and Co., Sparks, Md.). The growth media were added to water to 2% w/v and autoclaved at 121° C. for 30 min. Autoclaved media were allowed to cool down to ˜50° C. Test chemicals were dissolved in DMSO (dimethyl sulfoxide) individually at 10 mg/mL to generate stock solutions. An appropriate amount of a stock solution was then added to the appropriate growth medium at 50° C. to make up the test media containing various concentrations of individual test chemicals. 10 mL of the medium was added to each well of a 6-well plate and allowed to solidify at room temperature. For each plate, the first well had no chemical, and the remaining five wells contained a particular test chemical at five different concentrations. Eight such plates were prepared for each chemical, using the eight media listed above for the eight test organisms.
(§3) After the media solidified and cooled, a plug (˜2 mm×2 mm) of agar growth medium with fresh grown mycelium from the appropriate fungal culture was used to inoculate each well. The plate was placed in an incubator, and the growth of the fungus monitored. After 4 to 7 days, the growth was scored manually.

Gloeophyllum trabeum = settings: for MIC: Gloeophyllum trabeum, 168 h, read-out: Effectiveness at Inhibiting Wood-Rotting Fungi, BR2 (minimal inhibitory concentration)
Experimental: as §1, §2, §3

Trametes versicolor = settings: for MIC: Trametes versicolor, 168 h, read-out: Effectiveness at Inhibiting Wood-Rotting Fungi, WR1 (minimal inhibitory concentration)
Experimental: as §1, §2, §3

Chaetomium globosum = settings: for MIC: Chaetomium globosum, 168 h, read-out: Effectiveness at Inhibiting Wood-Rotting Fungi, SR1 (minimal inhibitory concentration)
Experimental: as §1, §2, §3

Irpex lacteus = settings: for MIC: Irpex lacteus, 168 h, read-out: Effectiveness at Inhibiting Wood-Rotting Fungi, WR2 (minimal inhibitory concentration)
Experimental: as §1, §2, §3

Antrodia vaillantii = settings: for MIC: Fibroporia vaillantii, 168 h, read-out: Effectiveness at Inhibiting Wood-Rotting Fungi, BR3 (minimal inhibitory concentration)
Experimental: as §1, §2, §3

Postia placenta = settings: for MIC: Rhodonia placenta, 168 h, read-out: Effectiveness at Inhibiting Wood-Rotting Fungi, BR1 (minimal inhibitory concentration)
Experimental: as §1, §2, §3

[2] = 6-well agar plate, lowest concentration with no growth after seven days

| Compound | MIC [1, 2] [µg/mL] | MIC (Gloeophyllum trabeum; [2]) [µg/mL] | MIC (Trametes versicolor; [2]) [µg/mL] | MIC (Chaetomium globosum; [2]) [µg/mL] | MIC (Irpex lacteus; [2]) [µg/mL] | MIC (Antrodia vaillantii; [2]) [µg/mL] | MIC (Postia placenta; [2]) [µg/mL] | further results |
| --- | --- | --- | --- | --- | --- | --- | --- | --- |
| Nc1nc(=O)[nH]cc1F [5-Fluorocytosine] | > 100 | > 100 | 1 to 100 (≈ 7.75 to 775 µM) | > 100 | > 100 | 1 to 100 (≈ 7.75 to 775 µM) | < 1 |  |
| Oc1cccc2cccnc12 [8-Hydroxyquinoline] |  |  |  |  |  |  |  | MIC [1]: > 100 µg/mL; MIC (Gloeophyllum trabeum): > 100 µg/mL; MIC (Trametes versicolor): 1 to 100 µg/mL (≈ 6.89 to 689 µM); MIC (Chaetomium globosum): > 100 µg/mL; MIC (Irpex lacteus): 1 to 100 µg/mL (≈ 6.89 to 689 µM); MIC (Antrodia vaillantii): < 1 µg/mL; MIC (Postia placenta): 1 to 100 µg/mL (≈ 6.89 to 689 µM) |
| CO/C=C(\C(=O)OC)c1ccccc1Oc1cc(Oc2ccccc2C#N)ncn1 [Axoxystrobin] |  |  |  |  |  |  |  | Effectiveness at Inhibiting Wood-Rotting Fungi, WR3 (minimal inhibitory concentration) [1, 2]: 3 (“3” indicates inhibition (if any) only at >100 ppm); Effectiveness at Inhibiting Wood-Rotting Fungi, BR2 (minimal inhibitory concentration) (Gloeophyllum trabeum; [2]): 1 (“1” indicates effective inhibition at 1 ppm or less); Effectiveness at Inhibiting Wood-Rotting Fungi, WR1 (minimal inhibitory concentration) (Trametes versicolor; [2]): 3 (“3” indicates inhibition (if any) only at >100 ppm); Effectiveness at Inhibiting Wood-Rotting Fungi, SR1 (minimal inhibitory concentration) (Chaetomium globosum; [2]): 3 (“3” indicates inhibition (if any) only at >100 ppm); Effectiveness at Inhibiting Wood-Rotting Fungi, WR2 (minimal inhibitory concentration) (Irpex lacteus; [2]): 3 (“3” indicates inhibition (if any) only at >100 ppm); Effectiveness at Inhibiting Wood-Rotting Fungi, BR3 (minimal inhibitory concentration) (Antrodia vaillantii; [2]): 1 (“1” indicates effective inhibition at 1 ppm or less); Effectiveness at Inhibiting Wood-Rotting Fungi, BR1 (minimal inhibitory concentration) (Postia placenta; [2]): 1 (“1” indicates effective inhibition at 1 ppm or less) |
| CC(C)(C)C(O)C(Oc1ccc(Cl)cc1)n1cncn1 (stereo not shown) [Baytan] |  |  |  |  |  |  |  | Effectiveness at Inhibiting Wood-Rotting Fungi, WR3 (minimal inhibitory concentration) [1, 2]: 1 (“1” indicates effective inhibition at 1 ppm or less); Effectiveness at Inhibiting Wood-Rotting Fungi, BR2 (minimal inhibitory concentration) (Gloeophyllum trabeum; [2]): 1 (“1” indicates effective inhibition at 1 ppm or less); Effectiveness at Inhibiting Wood-Rotting Fungi, WR1 (minimal inhibitory concentration) (Trametes versicolor; [2]): 1 (“1” indicates effective inhibition at 1 ppm or less); Effectiveness at Inhibiting Wood-Rotting Fungi, SR1 (minimal inhibitory concentration) (Chaetomium globosum; [2]): 3 (“3” indicates inhibition (if any) only at >100 ppm); Effectiveness at Inhibiting Wood-Rotting Fungi, WR2 (minimal inhibitory concentration) (Irpex lacteus; [2]): 1 (“1” indicates effective inhibition at 1 ppm or less); Effectiveness at Inhibiting Wood-Rotting Fungi, BR3 (minimal inhibitory concentration) (Antrodia vaillantii; [2]): 1 (“1” indicates effective inhibition at 1 ppm or less); Effectiveness at Inhibiting Wood-Rotting Fungi, BR1 (minimal inhibitory concentration) (Postia placenta; [2]): 2 (“2” indicates inhibition at about 1-100 ppm) |
| CCCCNC(=O)n1c(NC(=O)OC)nc2ccccc21 [Benomyl] | 1 to 100 (≈ 3.44 to 344 µM) | > 100 | > 100 | < 1 | > 100 | 1 to 100 (≈ 3.44 to 344 µM) | 1 to 100 (≈ 3.44 to 344 µM) |  |
| COC(=O)Nc1nc2ccccc2[nH]1 [Carbendazim] | 1 to 100 (≈ 5.23 to 523 µM) | > 100 | > 100 | < 1 | 1 to 100 (≈ 5.23 to 523 µM) | 1 to 100 (≈ 5.23 to 523 µM) | 1 to 100 (≈ 5.23 to 523 µM) |  |
| CC1=C(C(=O)Nc2ccccc2)SCCO1 [Carboxin] |  |  |  |  |  |  |  | MIC [1]: < 1 µg/mL; MIC (Gloeophyllum trabeum): < 1 µg/mL; MIC (Trametes versicolor): < 1 µg/mL; MIC (Chaetomium globosum): 1 to 100 µg/mL (≈ 4.25 to 425 µM); MIC (Irpex lacteus): < 1 µg/mL; MIC (Antrodia vaillantii): < 1 µg/mL; MIC (Postia placenta): 1 to 100 µg/mL (≈ 4.25 to 425 µM) |
| CC(Cc1ccc(C(C)(C)C)cc1)CN1C[C@@H](C)O[C@@H](C)C1 (stereo partly shown) [Fenpropimorph] | 1 to 100 (≈ 3.3 to 330 µM) | < 1 | 1 to 100 (≈ 3.3 to 330 µM) | > 100 | 1 to 100 (≈ 3.3 to 330 µM) | 1 to 100 (≈ 3.3 to 330 µM) | < 1 |  |
| CN(C)C(=S)[S-].CN(C)C(=S)[S-].CN(C)C(=S)[S-].[Fe+3] [Ferbam] |  |  |  |  |  |  |  | Effectiveness at Inhibiting Wood-Rotting Fungi, WR3 (minimal inhibitory concentration) [1, 2]: 2 (“2” indicates inhibition at about 1-100 ppm); Effectiveness at Inhibiting Wood-Rotting Fungi, BR2 (minimal inhibitory concentration) (Gloeophyllum trabeum; [2]): 3 (“3” indicates inhibition (if any) only at >100 ppm); Effectiveness at Inhibiting Wood-Rotting Fungi, WR1 (minimal inhibitory concentration) (Trametes versicolor; [2]): 2 (“2” indicates inhibition at about 1-100 ppm); Effectiveness at Inhibiting Wood-Rotting Fungi, SR1 (minimal inhibitory concentration) (Chaetomium globosum; [2]): 2 (“2” indicates inhibition at about 1-100 ppm); Effectiveness at Inhibiting Wood-Rotting Fungi, WR2 (minimal inhibitory concentration) (Irpex lacteus; [2]): 2 (“2” indicates inhibition at about 1-100 ppm); Effectiveness at Inhibiting Wood-Rotting Fungi, BR3 (minimal inhibitory concentration) (Antrodia vaillantii; [2]): 2 (“2” indicates inhibition at about 1-100 ppm); Effectiveness at Inhibiting Wood-Rotting Fungi, BR1 (minimal inhibitory concentration) (Postia placenta; [2]): 1 (“1” indicates effective inhibition at 1 ppm or less) |
| O=[N+]([O-])c1cc(C(F)(F)F)c(Cl)c([N+](=O)[O-])c1Nc1ncc(C(F)(F)F)cc1Cl [Fluazinam] | 1 to 100 (≈ 2.15 to 215 µM) | < 1 | 1 to 100 (≈ 2.15 to 215 µM) | < 1 | 1 to 100 (≈ 2.15 to 215 µM) | < 1 | < 1 |  |
| O=[N+]([O-])c1c(Cl)c(Cl)c(Cl)c(Cl)c1Cl [Pentachloronitrobenzene] |  |  |  |  |  |  |  | MIC [1]: > 100 µg/mL; MIC (Gloeophyllum trabeum): 1 to 100 µg/mL (≈ 3.39 to 339 µM); MIC (Trametes versicolor): > 100 µg/mL; MIC (Chaetomium globosum): < 1 µg/mL; MIC (Irpex lacteus): > 100 µg/mL; MIC (Antrodia vaillantii): > 100 µg/mL; MIC (Postia placenta): 1 to 100 µg/mL (≈ 3.39 to 339 µM) |
| CCCN(CCOc1c(Cl)cc(Cl)cc1Cl)C(=O)n1ccnc1 [Prochloraz] |  |  |  |  |  |  |  | MIC [1]: 1 to 100 µg/mL (≈ 2.65 to 265 µM); MIC (Gloeophyllum trabeum): > 100 µg/mL; MIC (Trametes versicolor): 1 to 100 µg/mL (≈ 2.65 to 265 µM); MIC (Chaetomium globosum): < 1 µg/mL; MIC (Irpex lacteus): 1 to 100 µg/mL (≈ 2.65 to 265 µM); MIC (Antrodia vaillantii): 1 to 100 µg/mL (≈ 2.65 to 265 µM); MIC (Postia placenta): > 100 µg/mL |
| CCCC1COC(Cn2cncn2)(c2ccc(Cl)cc2Cl)O1 (stereo not shown) [Propiconazole] | < 1 | < 1 | < 1 | < 1 | < 1 | < 1 | < 1 |  |
| CC(C)(C)C(O)(CCc1ccc(Cl)cc1)Cn1cncn1 (stereo not shown) [Tebuconazole] | < 1 | < 1 | < 1 | 1 to 100 (≈ 3.25 to 325 µM) | < 1 | < 1 | < 1 |  |
| c1ccc2[nH]c(-c3cscn3)nc2c1 [Thiabendazole] | > 100 | > 100 | > 100 | < 1 | > 100 | > 100 | > 100 |  |
| CON=C(C(=O)OC)c1ccccc1CON=C(C)c1cccc(C(F)(F)F)c1 [Trifloxystrobin] | > 100 | < 1 | > 100 | > 100 | > 100 | < 1 | 1 to 100 (≈ 2.45 to 245 µM) |  |
